Assays:
HDAC6 = target: T1, HDAC6 (Homo sapiens, UniProt Q9UBN7); assay: HDAC6 inhibitor screening kit (Biovision), in vitro inhibitory activity; format: biochemical
T1 construct: purchased Biovision Company
T1 sequence (Q9UBN7 1-1215): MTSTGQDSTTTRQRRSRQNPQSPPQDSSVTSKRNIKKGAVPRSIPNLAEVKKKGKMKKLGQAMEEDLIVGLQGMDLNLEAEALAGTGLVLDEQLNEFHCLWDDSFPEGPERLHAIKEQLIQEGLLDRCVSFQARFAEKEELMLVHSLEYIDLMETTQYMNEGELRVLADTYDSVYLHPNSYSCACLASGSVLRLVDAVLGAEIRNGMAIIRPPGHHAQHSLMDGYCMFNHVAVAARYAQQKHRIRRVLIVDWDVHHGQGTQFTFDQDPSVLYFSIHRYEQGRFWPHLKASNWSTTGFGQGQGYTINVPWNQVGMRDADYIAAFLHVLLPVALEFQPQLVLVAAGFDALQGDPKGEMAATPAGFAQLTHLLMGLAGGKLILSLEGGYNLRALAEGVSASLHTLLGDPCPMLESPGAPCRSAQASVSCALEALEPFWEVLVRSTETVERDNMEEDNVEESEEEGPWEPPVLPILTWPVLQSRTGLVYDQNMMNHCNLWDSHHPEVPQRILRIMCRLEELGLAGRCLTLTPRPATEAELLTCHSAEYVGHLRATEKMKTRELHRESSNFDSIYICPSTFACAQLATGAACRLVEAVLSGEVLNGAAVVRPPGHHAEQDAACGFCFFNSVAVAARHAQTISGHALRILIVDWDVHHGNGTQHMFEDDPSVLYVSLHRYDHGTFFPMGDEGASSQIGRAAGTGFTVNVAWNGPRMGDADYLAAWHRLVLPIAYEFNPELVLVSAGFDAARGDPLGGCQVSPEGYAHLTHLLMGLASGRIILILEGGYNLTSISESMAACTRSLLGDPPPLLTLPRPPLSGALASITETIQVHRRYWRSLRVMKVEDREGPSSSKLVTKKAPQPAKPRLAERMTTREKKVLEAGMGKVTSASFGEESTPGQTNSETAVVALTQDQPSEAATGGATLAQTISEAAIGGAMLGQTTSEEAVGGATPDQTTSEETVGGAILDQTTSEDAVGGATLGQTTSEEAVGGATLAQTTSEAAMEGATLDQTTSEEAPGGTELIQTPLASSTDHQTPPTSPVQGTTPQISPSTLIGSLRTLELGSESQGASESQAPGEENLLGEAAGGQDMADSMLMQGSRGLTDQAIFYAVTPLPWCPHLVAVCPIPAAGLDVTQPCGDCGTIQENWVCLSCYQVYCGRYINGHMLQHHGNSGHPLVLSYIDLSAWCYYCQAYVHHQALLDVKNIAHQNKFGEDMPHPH
Method: (§1) The in vitro inhibitory activity of histone deacetylase of the compound was determined according to the instructions of HDAC1 and HDAC6 inhibitor screening kit (Biovision Company).

HDAC1 = target: T2, HDAC1 (Homo sapiens, UniProt Q13547); assay: HDAC1 inhibitor screening kit (Biovision), in vitro inhibitory activity; format: biochemical
T2 construct: purchased Biovision Company
T2 sequence (Q13547 whole entry): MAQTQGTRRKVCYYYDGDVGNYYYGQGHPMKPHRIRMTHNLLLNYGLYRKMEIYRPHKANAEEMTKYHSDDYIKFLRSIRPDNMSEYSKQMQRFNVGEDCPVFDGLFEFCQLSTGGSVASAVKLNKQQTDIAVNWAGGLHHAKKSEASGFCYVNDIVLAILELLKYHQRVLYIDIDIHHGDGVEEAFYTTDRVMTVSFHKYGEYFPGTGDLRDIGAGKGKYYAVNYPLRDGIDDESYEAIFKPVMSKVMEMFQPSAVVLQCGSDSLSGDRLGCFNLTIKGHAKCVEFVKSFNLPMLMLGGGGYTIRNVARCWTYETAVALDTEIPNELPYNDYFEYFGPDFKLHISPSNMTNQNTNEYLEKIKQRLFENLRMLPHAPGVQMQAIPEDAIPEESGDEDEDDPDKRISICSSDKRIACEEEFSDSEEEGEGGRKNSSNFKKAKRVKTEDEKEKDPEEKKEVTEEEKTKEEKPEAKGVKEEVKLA
Method: as §1

[1] = test system: human liver cancer cell line HepG2; assay: In vitro anti-proliferative activity (CCK8), HepG2; format: cell-based; conditions: HepG2, 10 μM, 48 hours, CCK8, class symbol, read-out: Hep G2 (Liver cancer) Inh % in 10 μM
Method: (§2) The specific results are shown in the table (unit: […] Test method: The tumor cells in the logarithmic growth phase with good growth status were inoculated into 96-well plates at 4×10^3 per well, and 8 duplicate wells were set up in each group. The cells were cultured in a cell incubator, after the cells adhered to the wall, […]. […] The experiment was repeated 3 times, and the average of the experimental results was taken as the final experimental result, and the inhibition rate was calculated.

[2] = test system: human lung cancer cell line A549; assay: In vitro anti-proliferative activity (CCK8), A549; format: cell-based; conditions: A549, 10 μM, 48 hours, CCK8, class symbol, read-out: A549 (Lung cancer) Inh % in 10 μM
Method: as §2

[3] = test system: myeloma cell line RPMI 8226; assay: In vitro anti-proliferative activity (CCK8), RPMI 8226; format: cell-based; conditions: Homo sapiens, 48 hours, class symbol, read-out: RPMI 8226 (Myeloma) Inh % in 10 μM
Method: as §2

[4] = test system: mixed cells and primary neurons in rat cortex; assay: Protective effect on HCA-induced neuronal cell damage; format: cell-based; conditions: HCA 5 mmol/L; test concentration 0.1, 1.0 and 10.0 μM; compared with Tubastatin A at the same dose
hERG potassium channels = target: T3, hERG potassium channels (Homo sapiens, UniProt Q12809); assay: hERG potassium channel whole-cell patch clamp; format: cell-based; conditions: hERG-HEK293 cells, IKr current
T3 construct: expressed in transfected cells
T3 sequence (Q12809 whole entry): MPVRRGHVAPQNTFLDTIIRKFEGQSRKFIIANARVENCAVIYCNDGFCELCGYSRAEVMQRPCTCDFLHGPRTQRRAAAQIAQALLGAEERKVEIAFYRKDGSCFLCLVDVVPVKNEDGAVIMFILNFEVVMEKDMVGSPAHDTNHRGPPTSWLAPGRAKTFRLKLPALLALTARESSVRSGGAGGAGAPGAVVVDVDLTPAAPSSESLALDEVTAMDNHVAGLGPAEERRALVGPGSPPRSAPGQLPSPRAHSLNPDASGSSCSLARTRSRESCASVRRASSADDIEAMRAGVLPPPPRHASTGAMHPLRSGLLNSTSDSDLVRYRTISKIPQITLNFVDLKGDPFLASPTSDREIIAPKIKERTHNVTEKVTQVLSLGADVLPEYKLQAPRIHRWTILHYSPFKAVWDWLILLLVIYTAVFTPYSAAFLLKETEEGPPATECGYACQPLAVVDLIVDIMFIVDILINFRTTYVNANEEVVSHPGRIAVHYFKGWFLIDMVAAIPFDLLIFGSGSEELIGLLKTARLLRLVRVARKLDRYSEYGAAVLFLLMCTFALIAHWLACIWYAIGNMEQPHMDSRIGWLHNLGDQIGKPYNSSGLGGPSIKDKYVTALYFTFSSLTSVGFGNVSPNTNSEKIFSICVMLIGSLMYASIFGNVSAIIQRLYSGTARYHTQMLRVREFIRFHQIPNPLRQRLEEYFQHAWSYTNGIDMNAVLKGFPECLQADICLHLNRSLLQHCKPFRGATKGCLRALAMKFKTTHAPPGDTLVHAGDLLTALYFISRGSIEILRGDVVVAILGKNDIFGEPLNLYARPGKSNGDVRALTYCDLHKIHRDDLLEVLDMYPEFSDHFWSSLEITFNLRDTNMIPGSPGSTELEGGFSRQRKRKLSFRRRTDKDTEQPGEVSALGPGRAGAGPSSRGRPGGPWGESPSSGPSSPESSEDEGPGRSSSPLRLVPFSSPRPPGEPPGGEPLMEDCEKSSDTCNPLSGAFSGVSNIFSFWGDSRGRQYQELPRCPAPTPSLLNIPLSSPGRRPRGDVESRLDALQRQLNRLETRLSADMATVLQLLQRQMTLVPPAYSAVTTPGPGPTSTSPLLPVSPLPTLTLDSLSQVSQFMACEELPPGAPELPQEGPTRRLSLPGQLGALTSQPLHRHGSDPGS
Description: Whole-cell patch clamp technique was used to record the changes of hERG current (IKr) after different concentrations of compounds acted on HEK293 cells (hERG-HEK293 steady-state cells) expressing hERG potassium channels to study the half inhibitory concentration (IC50) of the above compounds on IKr.

[5] = Maximum tolerance dose by intragastric administration; conditions: ICR, mouse, in vivo, po; mice, single intragastric administration, 14 days observation; read-out: maximum tolerated dose
Method: 40 ICR mice, half male and half […], weighing 18 to 20 g, were divided into 4 groups with 10 animals in each group. After 6 hours of fasting, the test samples in each group were taken with sterilized plastic syringe and orally gavaged at a volume of 0.3 mL/10 g. The general physical signs of animals and the death of animals were recorded at 1, 2 and 4 hours after administration. […] The dead animals were dissected to observe whether there were any visible pathological changes in the organs of the animals, and pathological examinations were carried out on suspicious tissues and organs.

[6] = test system: MRC-5 human normal embryo lung fibroblast; assay: In vitro anti-proliferative activity (CCK8), MRC-5 normal cells; format: cell-based; conditions: MRC5, 10 μM, 48 hours, CCK8, class symbol, read-out: MRC-5 (Normal cell line) Inh % in 10 μM
glioma cell line U-87MG = assay: In vitro anti-proliferative activity (CCK8), U-87MG; format: cell-based; conditions: Homo sapiens, 10 μM, 48 hours, CCK8, class symbol, read-out: U-87MG (Glioma) Inh % in 10 μM

Row | Compound | IC50 (HDAC6) [nM] | IC50 (HDAC1) [nM] | further results
1 | O=C(NO)c1ccc(CN2CCCCc3ccc(Cl)cc32)cc1 [Compound T-1, 4-((8-chloro-2,3,4,5-tetrahydro-1H-benzo[b]azepin-1-yl)methyl)-N-hydroxybenzamide] | 37 | > 500 | 
2 | O=C(NO)c1ccc(CN2CCCCc3ccc(Cl)cc32)cc1 [Compound T-2, 4-((8-chloro-2,3,4,5-tetrahydro-1H-benzo[b]azepin-1-yl)methyl)-N-hydroxybenzamide] | 14 | 406 | inhibition at 10 µM [1]: 90 to 100%; inhibition at 10 µM [2]: 70 to 80%; inhibition at 10 µM [3]: 90 to 100%; protective effect against HCA-induced neuronal excitotoxicity (cell survival rate) [4]: stronger than that of the HDAC6 inhibitor compound Tubastatin A; IC50 (hERG potassium channels): > 10000 nM; MTD at 14 days [5]: > 1000 mg/kg; inhibition at 10 µM [6]: < 50%; inhibition at 10 µM (glioma cell line U-87MG): 80 to 90%
3 | O=C(NO)c1ccc(CN2CCCCc3ccc(Br)cc32)cc1 [Compound T-3, 4-((8-bromo-2,3,4,5-tetrahydro-1H-benzo[b]azepin-1-yl)methyl)-N-hydroxybenzamide] | 43 | 400 | 
4 | O=C(NO)c1ccc(CN2CCCCc3cc(F)ccc32)cc1 [Compound T-4, 4-((7-fluoro-2,3,4,5-tetrahydro-1H-benzo[b]azepin-1-yl)methyl)-N-hydroxybenzamide] | 8.2 | 414 | 
5 | COc1ccc2c(c1)N(Cc1ccc(C(=O)NO)cc1)CCCC2 [Compound T-6, 4-((8-methoxy-2,3,4,5-tetrahydro-1H-benzo[b]azepin-1-yl)methyl)-N-hydroxybenzamide] | 8.2 | 294 | 
6 | COc1cccc2c1CCCCN2Cc1ccc(C(=O)NO)cc1 [Compound T-7, 4-((6-methoxy-2,3,4,5-tetrahydro-1H-benzo[b]azepin-1-yl)methyl)-N-hydroxybenzamide] | 6.5 | 277 | 
7 | COc1cccc2c1N(Cc1ccc(C(=O)NO)cc1)CCCC2 [Compound T-8, 4-((9-methoxy-2,3,4,5-tetrahydro-1H-benzo[b]azepin-1-yl)methyl)-N-hydroxybenzamide] | 9.2 | 287 | 
8 | COc1cc2c(cc1OC)N(Cc1ccc(C(=O)NO)cc1)CCCC2 [Compound T-9, 4-((7,8-dimethoxy-2,3,4,5-tetrahydro-1H-benzo[b]azepin-1-yl)methyl)-N-hydroxybenzamide] | 8.6 | 269 | 
9 | O=C(NO)c1ccc(CN2CCCCc3ccc(-c4ccccc4)cc32)cc1 [Compound T-10, 4-((8-phenyl-2,3,4,5-tetrahydro-1H-benzo[b]azepin-1-yl)methyl)-N-hydroxybenzamide] | 129 | > 500 | 
10 | O=C(NO)c1ccc(CN2CCCCc3ccc(-c4ccncc4)cc32)cc1 [Compound T-11, 4-((8-(pyridin-4-yl)-2,3,4,5-tetrahydro-1H-benzo[b]azepin-1-yl)methyl)-N-hydroxybenzamide] | 14.3 | > 500 | 
11 | O=C(NO)c1ccc(CN2CCCCc3ccc(C4CC4)cc32)cc1 [Compound T-12, 4-((8-cyclopropyl-2,3,4,5-tetrahydro-1H-benzo[b]azepin-1-yl)methyl)-N-hydroxybenzamide] | 45 | > 500 | 
12 | CN(C)c1ccc2c(c1)N(Cc1ccc(C(=O)NO)cc1)CCCC2 [Compound T-13, 4-((8-dimethylamino-2,3,4,5-tetrahydro-1H-benzo[b]azepin-1-yl)methyl)-N-hydroxybenzamide] | 85 | > 500 | 
13 | CN(C)C1CCCN(Cc2ccc(C(=O)NO)cc2)c2ccccc21 (stereo not drawn) [Compound T-21, 4-((5-dimethylamino-2,3,4,5-tetrahydro-1H-benzo[b]azepin-1-yl)methyl)-N-hydroxybenzamide] |  |  | inhibition at 10 µM [1]: 90 to 100%; inhibition at 10 µM [2]: 70 to 80%; inhibition at 10 µM [3]: 90 to 100%; protective effect against HCA-induced neuronal excitotoxicity (cell survival rate) [4]: stronger than that of the HDAC6 inhibitor compound Tubastatin A; IC50 (hERG potassium channels): > 10000 nM; MTD at 14 days [5]: > 1000 mg/kg; inhibition at 10 µM [6]: < 50%; inhibition at 10 µM (glioma cell line U-87MG): 80 to 90%

Now from value to molecule, other results behind:

Row | IC50 (HDAC6) [nM] | IC50 (HDAC1) [nM] | Compound | further results
14 | 142 | > 500 | O=C(NO)c1ccc(CN2CCCCc3ccc(N4CCCCC4)cc32)cc1 [Compound T-14, 4-((8-(piperidin-1-yl)-2,3,4,5-tetrahydro-1H-benzo[b]azepin-1-yl)methyl)-N-hydroxybenzamide] | 
15 | 7.4 | > 500 | CN1CCCN(Cc2ccc(C(=O)NO)cc2)c2ccccc21 [Compound T-17] | 
16 | 7.2 | 421 | O=C(NO)c1ccc(CN2CCCC(=O)c3ccccc32)cc1 [Compound T-18, 4-((5-oxo-2,3,4,5-tetrahydro-1H-benzo[b]azepin-1-yl)methyl)-N-hydroxybenzamide] | 
17 | 12 | > 500 | O=C(NO)c1ccc(CN2CCCCc3ccccc32)cc1F [Compound T-24, 4-((2,3,4,5-tetrahydro-1H-benzo[b]azepin-1-yl)methyl)-2-fluoro-N-hydroxybenzamide] | 
18 | 17 | > 500 | COc1ccc2c(c1)CCN(Cc1ccc(C(=O)NO)cc1)CC2 [Compound T-25, 4-((7-methoxy-1,2,4,5-tetrahydro-3H-benzo[d]azepin-3-yl)methyl)-N-hydroxybenzamide] | 
19 | 97 | > 500 | COc1cccc2c1CCN(Cc1ccc(C(=O)NO)cc1)CC2 [Compound T-26, 4-((6-methoxy-1,2,4,5-tetrahydro-3H-benzo[d]azepin-3-yl)methyl)-N-hydroxybenzamide] | 
20 | 29 | 431 | COc1ccc(Br)c2c1CCN(Cc1ccc(C(=O)NO)cc1)CC2 [Compound T-27, 4-((6-bromo-9-methoxy-1,2,4,5-tetrahydro-3H-benzo[d]azepin-3-yl)methyl)-N-hydroxybenzamide] | 

From patent US20230159463A1, “BENZONITRIC HETEROCYCLIC COMPOUND, PREPARATION METHOD THEREFOR AND USE THEREOF” (SHANGHAI ZHONGZE THERAPEUTICS, CO. LTD., priority 2020, published 2023)
